Results published in patent US20090291095A1, “NANOEMULSION ADJUVANTS” (The Regents of the University of Michigan, priority 2008, published 2009).

System: virus
Test: Virus inactivation by BCTP component
Details: concentrations equivalent to 11% BCTP

In the case of TRITON-X100, the “ability to inactivate a virus” value was “less ability to inactivate a virus”.
